Source: the NIST ThermoML archive (doi:10.1021/je700321s)
± gives the expanded uncertainty stated by the source.

Assay: xn = mol fraction of the nth substance listed
Details: Liquid, Vibrating tube method

CC(C)O [propan-2-ol] + O=C=O
Details	mass density [kg/m3]
308.11 K, 1814 kPa, x2 = 0.139	786.2 ± 0.8
308.11 K, 2252 kPa, x2 = 0.139	786.8 ± 0.8
308.11 K, 3003 kPa, x2 = 0.139	787.7 ± 0.8
308.11 K, 3206 kPa, x2 = 0.139	787.9 ± 0.8
308.11 K, 3427 kPa, x2 = 0.139	788.2 ± 0.8
308.11 K, 3514 kPa, x2 = 0.2003	792.7 ± 0.8
308.11 K, 3607 kPa, x2 = 0.139	788.4 ± 0.8
308.11 K, 4006 kPa, x2 = 0.2003	793.4 ± 0.8
308.11 K, 4089 kPa, x2 = 0.139	788.9 ± 0.8
308.11 K, 4510 kPa, x2 = 0.2003	794 ± 0.8
308.11 K, 5013 kPa, x2 = 0.139	789.9 ± 0.8
308.11 K, 5028 kPa, x2 = 0.2003	794.7 ± 0.8
308.11 K, 5503 kPa, x2 = 0.139	790.5 ± 0.8
308.11 K, 5504 kPa, x2 = 0.2003	795.3 ± 0.8
308.11 K, 6002 kPa, x2 = 0.6086	812.2 ± 0.8
308.11 K, 6006 kPa, x2 = 0.2003	795.9 ± 0.8
308.11 K, 6019 kPa, x2 = 0.139	791 ± 0.8
308.11 K, 6221 kPa, x2 = 0.6086	813 ± 0.8
308.11 K, 6400 kPa, x2 = 0.6086	813.7 ± 0.8
308.11 K, 6517 kPa, x2 = 0.2003	796.5 ± 0.8
308.11 K, 6518 kPa, x2 = 0.139	791.7 ± 0.8
308.11 K, 6606 kPa, x2 = 0.6086	814.5 ± 0.8
308.11 K, 6807 kPa, x2 = 0.6086	815.2 ± 0.8
308.11 K, 6824 kPa, x2 = 0.7943	793.7 ± 1.3
308.11 K, 7001 kPa, x2 = 0.7943	795.6 ± 0.9
308.11 K, 7009 kPa, x2 = 0.139	792.2 ± 0.8
308.11 K, 7019 kPa, x2 = 0.6086	815.9 ± 0.8
308.11 K, 7029 kPa, x2 = 0.2003	797.2 ± 0.8
308.11 K, 7203 kPa, x2 = 0.6086	816.7 ± 0.8
308.11 K, 7206 kPa, x2 = 0.7943	797.4 ± 0.8
308.11 K, 7400 kPa, x2 = 0.7943	799.2 ± 0.8
308.11 K, 7401 kPa, x2 = 0.6086	817.4 ± 0.8
308.11 K, 7512 kPa, x2 = 0.139	792.7 ± 0.8
308.11 K, 7516 kPa, x2 = 0.2003	797.7 ± 0.8
308.11 K, 7607 kPa, x2 = 0.6086	818.3 ± 0.8
308.11 K, 7607 kPa, x2 = 0.7943	801.1 ± 0.8
308.11 K, 7804 kPa, x2 = 0.6086	818.9 ± 0.8
308.11 K, 7810 kPa, x2 = 0.7943	803 ± 0.8
308.11 K, 8001 kPa, x2 = 0.2003	798.3 ± 0.8
308.11 K, 8005 kPa, x2 = 0.6086	819.7 ± 0.8
308.11 K, 8007 kPa, x2 = 0.7943	804.6 ± 0.8
308.11 K, 8016 kPa, x2 = 0.139	793.3 ± 0.8
308.11 K, 8197 kPa, x2 = 0.7943	806.2 ± 0.8
308.11 K, 8209 kPa, x2 = 0.6086	820.4 ± 0.8
308.11 K, 8414 kPa, x2 = 0.7943	807.8 ± 0.8
308.11 K, 8511 kPa, x2 = 0.2003	798.9 ± 0.8
308.11 K, 8530 kPa, x2 = 0.139	793.9 ± 0.8
308.11 K, 8600 kPa, x2 = 0.6086	821.7 ± 0.8
308.11 K, 8618 kPa, x2 = 0.7943	809.6 ± 0.8
308.11 K, 8796 kPa, x2 = 0.7943	810.8 ± 0.8
308.11 K, 8810 kPa, x2 = 0.6086	822.4 ± 0.8
308.11 K, 8990 kPa, x2 = 0.139	794.3 ± 0.8
308.11 K, 9000 kPa, x2 = 0.6086	823.1 ± 0.8
308.11 K, 9017 kPa, x2 = 0.7943	812.5 ± 0.8
308.11 K, 9019 kPa, x2 = 0.2003	799.5 ± 0.8
308.11 K, 9101 kPa, x2 = 0.6086	823.3 ± 0.9
308.11 K, 9200 kPa, x2 = 0.6086	823.8 ± 0.9
308.11 K, 9203 kPa, x2 = 0.7943	813.9 ± 0.8
308.11 K, 9400 kPa, x2 = 0.7943	815.3 ± 0.9
308.11 K, 9498 kPa, x2 = 0.139	794.8 ± 0.8
308.11 K, 9607 kPa, x2 = 0.7943	816.6 ± 0.9
308.11 K, 9807 kPa, x2 = 0.7943	818 ± 0.9
308.11 K, 9902 kPa, x2 = 0.7943	818.6 ± 1
308.11 K, 10003 kPa, x2 = 0.2003	800.7 ± 0.8
308.11 K, 10047 kPa, x2 = 0.2003	800.8 ± 0.8
308.12 K, 4780 kPa, x2 = 0.4248	807.5 ± 0.8
308.12 K, 5038 kPa, x2 = 0.4248	808.2 ± 0.8
308.12 K, 5326 kPa, x2 = 0.4248	808.8 ± 0.8
308.12 K, 5517 kPa, x2 = 0.4248	809.2 ± 0.8
308.12 K, 6029 kPa, x2 = 0.4248	810.3 ± 0.8
308.12 K, 6505 kPa, x2 = 0.4248	811.3 ± 0.8
308.12 K, 6515 kPa, x2 = 0.4248	811.4 ± 0.8
308.12 K, 6714 kPa, x2 = 0.4248	811.8 ± 0.8
308.12 K, 7035 kPa, x2 = 0.4248	812.4 ± 0.8
308.12 K, 7207 kPa, x2 = 0.4248	812.8 ± 0.8
308.12 K, 7302 kPa, x2 = 0.9492	699.6 ± 2
308.12 K, 7402 kPa, x2 = 0.9492	704.9 ± 2
308.12 K, 7501 kPa, x2 = 0.4248	813.4 ± 0.8
308.12 K, 7605 kPa, x2 = 0.9492	713.8 ± 1.7
308.12 K, 7700 kPa, x2 = 0.4248	813.8 ± 0.8
308.12 K, 7802 kPa, x2 = 0.9492	720.9 ± 1
308.12 K, 8002 kPa, x2 = 0.9492	728 ± 1.3
308.12 K, 8024 kPa, x2 = 0.4248	814.4 ± 0.8
308.12 K, 8204 kPa, x2 = 0.9492	734.5 ± 1
308.12 K, 8404 kPa, x2 = 0.9492	740.3 ± 1.1
308.12 K, 8605 kPa, x2 = 0.9492	745.7 ± 1.1
308.12 K, 8606 kPa, x2 = 0.4248	815.6 ± 0.8
308.12 K, 8802 kPa, x2 = 0.4248	816 ± 0.8
308.12 K, 8802 kPa, x2 = 0.9492	750.6 ± 0.9
308.12 K, 9002 kPa, x2 = 0.4248	816.4 ± 0.8
308.12 K, 9004 kPa, x2 = 0.9492	755.4 ± 1
308.12 K, 9201 kPa, x2 = 0.9492	759.7 ± 0.9
308.12 K, 9408 kPa, x2 = 0.9492	764 ± 1
308.12 K, 9529 kPa, x2 = 0.4248	817.3 ± 0.8
308.12 K, 9610 kPa, x2 = 0.9492	768 ± 1
308.12 K, 9805 kPa, x2 = 0.9492	771.5 ± 0.9
308.12 K, 9898 kPa, x2 = 0.4248	818 ± 0.8
308.12 K, 10003 kPa, x2 = 0.9492	774.9 ± 1
308.12 K, 10202 kPa, x2 = 0.9492	778 ± 0.9
308.12 K, 10405 kPa, x2 = 0.9492	780.9 ± 0.9
308.12 K, 10617 kPa, x2 = 0.9492	783.7 ± 0.9
308.12 K, 10807 kPa, x2 = 0.9492	785.9 ± 0.9
308.13 K, 7456 kPa, x2 = 0.9715	611.7 ± 4.1
308.13 K, 7502 kPa, x2 = 0.9715	636.2 ± 4.7
308.13 K, 7992 kPa, x2 = 0.9715	680.6 ± 1.8
308.13 K, 8522 kPa, x2 = 0.9715	706.8 ± 1.2
308.13 K, 8997 kPa, x2 = 0.9715	724.3 ± 1.1
308.13 K, 9508 kPa, x2 = 0.9715	739.8 ± 1
308.13 K, 10027 kPa, x2 = 0.9715	752.9 ± 1
308.13 K, 10521 kPa, x2 = 0.9715	763.7 ± 0.9
308.13 K, 11017 kPa, x2 = 0.9715	773.2 ± 0.9
308.13 K, 11500 kPa, x2 = 0.9715	781.6 ± 0.9
308.13 K, 12008 kPa, x2 = 0.9715	789.6 ± 0.9
308.13 K, 12520 kPa, x2 = 0.9715	797.2 ± 0.9
308.13 K, 13012 kPa, x2 = 0.9715	803.8 ± 0.9
308.13 K, 13520 kPa, x2 = 0.9715	810.4 ± 0.9
308.13 K, 14014 kPa, x2 = 0.9715	816.4 ± 0.9
308.13 K, 14520 kPa, x2 = 0.9715	822.1 ± 0.9
308.13 K, 15000 kPa, x2 = 0.9715	827.3 ± 0.9
313.08 K, 7544 kPa, x2 = 0.7943	777.4 ± 1.3
313.08 K, 7601 kPa, x2 = 0.7943	778.5 ± 1.1
313.08 K, 7810 kPa, x2 = 0.7943	780.8 ± 0.9
313.08 K, 8013 kPa, x2 = 0.7943	783 ± 0.9
313.08 K, 8205 kPa, x2 = 0.7943	784.9 ± 0.9
313.08 K, 8410 kPa, x2 = 0.7943	786.8 ± 0.9
313.08 K, 8593 kPa, x2 = 0.7943	788.4 ± 0.8
313.08 K, 8800 kPa, x2 = 0.7943	790.3 ± 0.8
313.08 K, 8999 kPa, x2 = 0.7943	792.2 ± 0.8
313.08 K, 9208 kPa, x2 = 0.7943	794 ± 0.8
313.08 K, 9405 kPa, x2 = 0.7943	795.7 ± 0.8
313.08 K, 9619 kPa, x2 = 0.7943	797.5 ± 0.8
313.08 K, 9803 kPa, x2 = 0.7943	799 ± 0.8
